Data published in US8207172B2 (Bayer Intellectual Property GmbH, priority 2004, dated 2012).
Counter-ions that a name gives are not always drawn.

What was measured:
[1] = system: BT474 (human breast carcinoma); assay: In vitro tumor cell proliferation assay (Cell Titer-Glo luminescent cell viability), BT474; assay type: cell-based; details: BT-474, 72 h, BT474 cells, 72 hours of drug exposure, ATP luminescence readout, read-out: IC50, anti-proliferative activity (inhibition of cell proliferation)
In short: (§1)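 Seeding density 2.5×10^3 cells/well; 72 h drug exposure at 37° C; endpoint CellTiter-Glo luminescence, reported as IC50.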

[2] = system: A431 cells (human epidermoid carcinoma); assay: In vitro tumor cell proliferation assay (Cell Titer-Glo luminescent cell viability), A431; assay type: cell-based; details: A-431, 72 h, 72 hours of drug exposure, ATP luminescence readout, read-out: IC50, anti-proliferative activity (inhibition of cell proliferation)
In short: as §1

| IC50 [1] [µM] | IC50 [2] [µM] | SMILES |
| --- | --- | --- |
| ≤ 50 | ≤ 50 | CC(C)(C)OC(=O)N1CCC(n2cc3c(n2)CCc2c-3sc3ncnc(Nc4ccc(OCc5cccc(F)c5)c(Cl)c4)c23)CC1 [Example 216, tert-butyl 4-[6-({3-chloro-4-[(3-fluorobenzyl)oxy]phenyl}amino)-4,5-dihydro-2H-pyrimido[5′,4′:4,5]thieno[2,3-e]indazol-2-yl]piperidine-1-carboxylate] |
| ≤ 1 | ≤ 5 | Fc1cccc(COc2ccc(Nc3ncnc4sc5c(c34)CCc3nn(C4CCNCC4)cc3-5)cc2Cl)c1 [Example 217, N-{3-chloro-4-[(3-fluorobenzyl)oxy]phenyl}-2-piperidin-4-yl-4,5-dihydro-2H-pyrimido[5′,4′:4,5]thieno[2,3-e]indazol-6-amine] |
| ≤ 1 | ≤ 50 | O=C(CCl)N1CCC(n2cc3c(n2)CCc2c-3sc3ncnc(Nc4ccc(OCc5cccc(F)c5)c(Cl)c4)c23)CC1 [Example 218, 2-[1-(chloroacetyl)piperidin-4-yl]-N-{3-chloro-4-[(3-fluorobenzyl)oxy]phenyl}-4,5-dihydro-2H-pyrimido[5′,4′:4,5]thieno[2,3-e]indazol-6-amine] |
| ≤ 1 | ≤ 5 | CCN(CC)CC(=O)N1CCC(n2cc3c(n2)CCc2c-3sc3ncnc(Nc4ccc(OCc5cccc(F)c5)c(Cl)c4)c23)CC1 [Example 220, N-{3-chloro-4-[(3-fluorobenzyl)oxy]phenyl}-2-{1-[(diethylamino)acetyl]piperidin-4-yl}-4,5-dihydro-2H-pyrimido[5′,4′:4,5]thieno[2,3-e]indazol-6-amine] |
| ≤ 5 | ≤ 50 | C[N+]1(C)CCC(n2cc3c(n2)CCc2c-3sc3ncnc(Nc4ccc(OCc5cccc(F)c5)c(Cl)c4)c23)CC1 [Example 225, 4-[6-({3-chloro-4-[(3-fluorobenzyl)oxy]phenyl}amino)-4,5-dihydro-2H-pyrimido[5′,4′:4,5]thieno[2,3-e]indazol-2-yl]-1,1-dimethylpiperidinium trifluoroacetate] |
| ≤ 1 | ≤ 5 | CC[N+]1(CC)CCC(n2cc3c(n2)CCc2c-3sc3ncnc(Nc4ccc(OCc5cccc(F)c5)c(Cl)c4)c23)CC1 [Example 226, 4-[6-({3-chloro-4-[(3-fluorobenzyl)oxy]phenyl}amino)-4,5-dihydro-2H-pyrimido[5′,4′:4,5]thieno[2,3-e]indazol-2-yl]-1,1-diethylpiperidinium trifluoroacetate] |
| ≤ 1 | ≤ 5 | CC(C)N1CCC(n2cc3c(n2)CCc2c-3sc3ncnc(Nc4ccc(OCc5cccc(F)c5)c(Cl)c4)c23)CC1 [Example 227, N-{3-chloro-4-[(3-fluorobenzyl)oxy]phenyl}-2-(1-isopropylpiperidin-4-yl)-4,5-dihydro-2H-pyrimido[5′,4′:4,5]thieno[2,3-e]indazol-6-amine] |
| ≤ 1 | ≤ 5 | CN1CCC(n2cc3c(n2)CCc2c-3sc3ncnc(Nc4ccc(OCc5cccc(F)c5)c(Cl)c4)c23)CC1 [Example 228, N-{3-chloro-4-[(3-fluorobenzyl)oxy]phenyl}-2-(1-methylpiperidin-4-yl)-4,5-dihydro-2H-pyrimido[5′,4′:4,5]thieno[2,3-e]indazol-6-amine] |
| ≤ 1 | ≤ 5 | CCCN1CCC(n2cc3c(n2)CCc2c-3sc3ncnc(Nc4ccc(OCc5cccc(F)c5)c(Cl)c4)c23)CC1 [Example 229, N-{3-chloro-4-[(3-fluorobenzyl)oxy]phenyl}-2-(1-propylpiperidin-4-yl)-4,5-dihydro-2H-pyrimido[5′,4′:4,5]thieno[2,3-e]indazol-6-amine] |
| ≤ 1 | ≤ 5 | CCN1CCC(n2cc3c(n2)CCc2c-3sc3ncnc(Nc4ccc(OCc5cccc(F)c5)c(Cl)c4)c23)CC1 [Example 230, N-{3-chloro-4-[(3-fluorobenzyl)oxy]phenyl}-2-(1-ethylpiperidin-4-yl)-4,5-dihydro-2H-pyrimido[5′,4′:4,5]thieno[2,3-e]indazol-6-amine] |

Continued, molecule first:

| SMILES | IC50 [1] [µM] | IC50 [2] [µM] |
| --- | --- | --- |
| O=C(Cn1ncc2c1CCc1c-2sc2ncnc(Nc3ccc(OCc4cccc(F)c4)c(Cl)c3)c12)Nc1cccnc1 [Example 210, 2-[6-({3-chloro-4-[(3-fluorobenzyl)oxy]phenyl}amino)-4,5-dihydro-3H-pyrimido[5′,4′:4,5]thieno[2,3-e]indazol-3-yl]-N-pyridin-3-ylacetamide] | ≤ 1 | ≤ 5 |
| O=C(Cn1ncc2c1CCc1c-2sc2ncnc(Nc3ccc(OCc4cccc(F)c4)c(Cl)c3)c12)N(CCO)CCO [Example 212, 2-[6-({3-chloro-4-[(3-fluorobenzyl)oxy]phenyl}amino)-4,5-dihydro-3H-pyrimido[5′,4′:4,5]thieno[2,3-e]indazol-3-yl]-N,N-bis(2-hydroxyethyl)acetamide] | ≤ 1 | ≤ 50 |
| O=C(Cn1ncc2c1CCc1c-2sc2ncnc(Nc3ccc(OCc4cccc(F)c4)c(Cl)c3)c12)N1CCC(O)CC1 [Example 213, 1-{[6-({3-chloro-4-[(3-fluorobenzyl)oxy]phenyl}amino)-4,5-dihydro-3H-pyrimido[5′,4′:4,5]thieno[2,3-e]indazol-3-yl]acetyl}piperidin-4-ol] | ≤ 1 | ≤ 5 |
| O=C(Cn1ncc2c1CCc1c-2sc2ncnc(Nc3ccc(OCc4cccc(F)c4)c(Cl)c3)c12)N1CC[C@H](O)C1 [Example 214, 1-{[6-({3-chloro-4-{(3-fluorobenzyl)oxy]phenyl}amino)-4,5-dihydro-3H-pyrimido[5′,4′:4,5]thieno[2,3-e]indazol-3-yl]acetyl}pyrrolidin-3-ol] | ≤ 1 | ≤ 5 |
| CN(C)C1CCN(C(=O)Cn2ncc3c2CCc2c-3sc3ncnc(Nc4ccc(OCc5cccc(F)c5)c(Cl)c4)c23)C1 (stereo not shown) [Example 215, N-{3-chloro-4-[(3-fluorobenzyl)oxy]phenyl}-3-{2-[3-(dimethylamino)pyrrolidin-1-yl]-2-oxoethyl}-4,5-dihydro-3H-pyrimido[5′,4′:4,5]thieno[2,3-e]indazol-6-amine] | ≤ 1 | ≤ 5 |
| CN(C)[C@@H]1CCN(CC(=O)N2CCC(n3cc4c(n3)CCc3c-4sc4ncnc(Nc5ccc(OCc6cccc(F)c6)c(Cl)c5)c34)CC2)C1 [Example 219, N-{3-chloro-4-[(3-fluorobenzyl)oxy]phenyl}-2-(1-{[(3R)-3-(dimethylamino)pyrrolidin-1-yl]acetyl}piperidin-4-yl)-4,5-dihydro-2H-pyrimido[5′,4′:4,5]thieno[2,3-e]indazol-6-amine] | ≤ 1 | ≤ 5 |
| O=C(CN1CCNCC1)N1CCC(n2cc3c(n2)CCc2c-3sc3ncnc(Nc4ccc(OCc5cccc(F)c5)c(Cl)c4)c23)CC1 [Example 221, N-{3-chloro-4-[(3-fluorobenzyl)oxy]phenyl}-2-[1-(piperazin-1-ylacetyl)piperidin-4-yl]-4,5-dihydro-2H-pyrimido[5′,4′:4,5]thieno[2,3-e]indazol-6-amine] | ≤ 1 | ≤ 50 |
| O=C(CN1CCOCC1)N1CCC(n2cc3c(n2)CCc2c-3sc3ncnc(Nc4ccc(OCc5cccc(F)c5)c(Cl)c4)c23)CC1 [Example 222, N-{3-chloro-4-[(3-fluorobenzyl)oxy]phenyl}-2-[1-(morpholin-4-ylacetyl)piperidin-4-yl]-4,5-dihydro-2H-pyrimido[5′,4′:4,5]thieno[2,3-e]indazol-6-amine] | ≤ 1 | ≤ 5 |
| CN(C)[C@H]1CCN(CC(=O)N2CCC(n3cc4c(n3)CCc3c-4sc4ncnc(Nc5ccc(OCc6cccc(F)c6)c(Cl)c5)c34)CC2)C1 [Example 223, N-{3-chloro-4-[(3-fluorobenzyl)oxy)phenyl}-2-(1-{[(3S)-3-(dimethylamino)pyrrolidin-1-yl]acetyl}piperidin-4-yl)-4,5-dihydro-2H-pyrimido[5′,4′:4,5]thieno[2,3-e]indazol-6-amine] | ≤ 1 | ≤ 5 |
| CN1CCN(CC(=O)N2CCC(n3cc4c(n3)CCc3c-4sc4ncnc(Nc5ccc(OCc6cccc(F)c6)c(Cl)c5)c34)CC2)CC1 [Example 224, N-{3-chloro-4-[(3-fluorobenzyl)oxy]phenyl}-2-{1-[(4-methylpiperazin-1-yl)acetyl]piperidin-4-yl}-4,5-dihydro-2H-pyrimido[5′,4′:4,5]thieno[2,3-e]indazol-6-amine] | ≤ 1 | ≤ 5 |
| CC(C)(C)OC(=O)N1CCC(Cn2cc3c(n2)CCc2c-3sc3ncnc(Nc4ccc(OCc5cccc(F)c5)c(Cl)c4)c23)CC1 [Example 231, tert-butyl 4-{[6-({3-chloro-4-[(3-fluorobenzyl)oxy]phenyl}amino)-4,5-dihydro-2H-pyrimido[5′,4′:4,5]thieno[2,3-e]indazol-2-yl]methyl}piperidine-1-carboxylate] | ≤ 5 | ≤ 50 |
| Fc1cccc(COc2ccc(Nc3ncnc4sc5c(c34)CCc3nn(CC4CCNCC4)cc3-5)cc2Cl)c1 [Example 232, N-{3-chloro-4-[(3-fluorobenzyl)oxy]phenyl}-2-(piperidin-4-ylmethyl)-4,5-dihydro-2H-pyrimido[5′,4′:4,5]thieno[2,3-e]indazol-6-amine] | ≤ 1 | ≤ 5 |
| CN(C)[C@@H]1CCN(CC(=O)N2CCC(Cn3cc4c(n3)CCc3c-4sc4ncnc(Nc5ccc(OCc6cccc(F)c6)c(Cl)c5)c34)CC2)C1 [Example 234, N-{3-chloro-4-[(3-fluorobenzyl)oxy]phenyl}-2-[(1-{[(3R)-3-(dimethylamino)pyrrolidin-1-yl]acetyl}piperidin-4-yl)methyl]-4,5-dihydro-2H-pyrimido[5′,4′:4,5]thieno[2,3-e]indazol-6-amine trifluoroacetate] | ≤ 5 | ≤ 50 |
